According to ChEMBL document CHEMBL1201862, “PubChem BioAssay data set” (2004):
Calls of active or inactive are those of the source.

Key:
[1] = Luminescence Cell-Based Dose Retest to Confirm Inhibitors of Cancer Stem Cells. [Related pubchem assays (depositor defined):AID2717, AID2721]; format: functional; conditions: Homo sapiens
[2] = viability loss of HMLE_sh_eGFP cells – cell-based, luminescence, counter-screen for HMLE_sh_ECad selective toxicity project, dose response (AID 463074); format: functional, Homo sapiens;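 note: HMLE human mammary epithelial cells expressing control shRNA against eGFP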
[3] = biological target: DNA dC->dU-editing enzyme APOBEC-3A (Homo sapiens, UniProt P31941); experiment: Dose Response confirmation of small molecule APOBEC3A DNA Deaminase Inhibitors via a fluorescence-based single-stranded DNA deaminase assay. [Related pubchem assays (depositor defined):AID493011, AID493024]; format: functional
[4] = biological target: DNA dC->dU-editing enzyme APOBEC-3G (Homo sapiens, UniProt Q9HC16); format: functional;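 note: Dose-response counterscreen measuring inhibition of APOBEC3G DNA deaminase activity, run while confirming APOBEC3A inhibitors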
Vero [5] = experiment: cells; format: functional; conditions: Chlorocebus sabaeus
Vero [6] = experiment: cells; format: functional, cell-based; conditions: Chlorocebus sabaeus
[7] = biological target: T1, RNA-binding protein pos-1 (Caenorhabditis elegans, UniProt G5EF15); experiment: disruptors of C. elegans POS-1 RNA interaction – biochemical, fluorescence polarization, dose response (AID 1964);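 note: purified POS-1 fused to maltose binding protein made in E. coli; potency of compounds blocking POS-1 binding to fluorescent RNA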
T1 sequence (G5EF15 whole entry): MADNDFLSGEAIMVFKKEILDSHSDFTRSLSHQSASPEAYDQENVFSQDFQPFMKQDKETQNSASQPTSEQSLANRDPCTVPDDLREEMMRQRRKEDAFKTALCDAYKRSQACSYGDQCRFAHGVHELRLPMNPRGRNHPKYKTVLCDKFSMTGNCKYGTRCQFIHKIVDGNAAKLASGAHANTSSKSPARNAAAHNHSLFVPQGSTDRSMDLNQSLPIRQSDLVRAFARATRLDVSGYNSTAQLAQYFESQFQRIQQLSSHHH

[8] = biological target: T2, Zinc finger protein mex-5 (Caenorhabditis elegans, UniProt Q9XUB2); experiment: potency of MEX-5 RNA-binding blockers – biochemical, C. elegans, fluorescence polarization, dose response (AID 1960)
T2 sequence (Q9XUB2 whole entry): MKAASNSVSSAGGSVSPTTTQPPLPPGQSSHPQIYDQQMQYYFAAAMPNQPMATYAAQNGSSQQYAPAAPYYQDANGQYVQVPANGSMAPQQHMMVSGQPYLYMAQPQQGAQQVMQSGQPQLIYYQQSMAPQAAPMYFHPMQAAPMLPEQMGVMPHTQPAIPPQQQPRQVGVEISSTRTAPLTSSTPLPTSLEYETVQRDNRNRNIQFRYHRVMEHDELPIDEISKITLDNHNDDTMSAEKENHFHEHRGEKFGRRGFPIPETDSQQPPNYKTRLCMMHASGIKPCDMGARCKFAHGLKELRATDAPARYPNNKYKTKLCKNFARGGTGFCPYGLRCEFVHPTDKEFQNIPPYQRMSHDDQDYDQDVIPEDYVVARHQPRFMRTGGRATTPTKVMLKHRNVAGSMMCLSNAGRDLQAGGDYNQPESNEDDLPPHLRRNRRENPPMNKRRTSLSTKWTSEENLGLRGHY

Exodeoxyribonuclease V = biological target: T3, Exodeoxyribonuclease V (Escherichia coli (strain K12), UniProt P04993+P07648+P08394); experiment: RecBCD inhibition via phage-restricted bacterial growth – absorbance, V66 E. coli, mutant T4 phage, counter-screen for AddAB inhibitor project, dose response (AID 492957); format: functional, cell-based, Escherichia coli str. K-12 substr. MG1655
T3 sequence (P04993 whole entry): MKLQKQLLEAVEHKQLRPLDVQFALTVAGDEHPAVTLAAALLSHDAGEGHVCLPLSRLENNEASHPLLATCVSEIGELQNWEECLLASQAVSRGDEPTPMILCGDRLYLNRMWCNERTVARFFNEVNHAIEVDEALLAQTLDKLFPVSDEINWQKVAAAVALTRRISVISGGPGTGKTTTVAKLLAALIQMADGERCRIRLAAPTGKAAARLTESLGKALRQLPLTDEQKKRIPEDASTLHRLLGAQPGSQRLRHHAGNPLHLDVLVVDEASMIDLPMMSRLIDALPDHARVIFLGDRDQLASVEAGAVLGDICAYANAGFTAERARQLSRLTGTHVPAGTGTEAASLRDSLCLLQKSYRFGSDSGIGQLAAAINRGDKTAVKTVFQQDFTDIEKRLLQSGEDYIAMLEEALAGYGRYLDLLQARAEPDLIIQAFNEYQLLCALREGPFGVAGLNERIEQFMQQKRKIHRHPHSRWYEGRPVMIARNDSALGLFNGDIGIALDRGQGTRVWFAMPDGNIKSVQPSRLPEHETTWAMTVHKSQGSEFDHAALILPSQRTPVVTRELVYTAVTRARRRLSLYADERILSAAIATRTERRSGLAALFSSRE
T3 sequence (P07648 whole entry): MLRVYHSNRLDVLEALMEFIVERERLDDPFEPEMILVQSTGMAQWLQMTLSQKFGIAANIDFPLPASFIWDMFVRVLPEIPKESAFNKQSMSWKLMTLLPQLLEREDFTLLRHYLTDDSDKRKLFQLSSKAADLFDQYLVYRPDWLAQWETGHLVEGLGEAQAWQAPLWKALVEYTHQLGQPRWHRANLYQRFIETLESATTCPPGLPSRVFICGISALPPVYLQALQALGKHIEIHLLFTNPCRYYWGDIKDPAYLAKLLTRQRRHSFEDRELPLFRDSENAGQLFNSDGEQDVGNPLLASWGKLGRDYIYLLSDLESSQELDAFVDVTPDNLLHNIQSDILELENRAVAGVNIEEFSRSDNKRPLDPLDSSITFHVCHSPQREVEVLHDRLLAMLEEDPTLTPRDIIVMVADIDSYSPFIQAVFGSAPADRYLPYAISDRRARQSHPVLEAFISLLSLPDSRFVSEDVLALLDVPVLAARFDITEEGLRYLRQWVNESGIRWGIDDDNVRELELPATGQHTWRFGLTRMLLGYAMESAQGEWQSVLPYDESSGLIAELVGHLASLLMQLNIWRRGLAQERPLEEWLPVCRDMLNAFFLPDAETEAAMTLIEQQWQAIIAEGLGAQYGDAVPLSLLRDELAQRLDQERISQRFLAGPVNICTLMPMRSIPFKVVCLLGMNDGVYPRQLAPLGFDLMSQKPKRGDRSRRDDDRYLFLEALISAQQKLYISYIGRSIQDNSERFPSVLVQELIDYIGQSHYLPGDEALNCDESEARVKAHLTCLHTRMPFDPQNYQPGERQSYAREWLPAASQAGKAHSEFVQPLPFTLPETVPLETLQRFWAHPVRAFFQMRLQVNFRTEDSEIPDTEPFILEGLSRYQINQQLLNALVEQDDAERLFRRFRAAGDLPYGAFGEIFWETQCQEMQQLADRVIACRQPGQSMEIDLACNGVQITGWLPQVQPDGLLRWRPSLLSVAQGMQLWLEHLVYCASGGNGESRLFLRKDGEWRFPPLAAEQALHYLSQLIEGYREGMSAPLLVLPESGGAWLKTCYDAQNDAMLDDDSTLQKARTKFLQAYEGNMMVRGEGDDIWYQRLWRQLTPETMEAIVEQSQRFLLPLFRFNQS
T3 sequence (P08394 whole entry): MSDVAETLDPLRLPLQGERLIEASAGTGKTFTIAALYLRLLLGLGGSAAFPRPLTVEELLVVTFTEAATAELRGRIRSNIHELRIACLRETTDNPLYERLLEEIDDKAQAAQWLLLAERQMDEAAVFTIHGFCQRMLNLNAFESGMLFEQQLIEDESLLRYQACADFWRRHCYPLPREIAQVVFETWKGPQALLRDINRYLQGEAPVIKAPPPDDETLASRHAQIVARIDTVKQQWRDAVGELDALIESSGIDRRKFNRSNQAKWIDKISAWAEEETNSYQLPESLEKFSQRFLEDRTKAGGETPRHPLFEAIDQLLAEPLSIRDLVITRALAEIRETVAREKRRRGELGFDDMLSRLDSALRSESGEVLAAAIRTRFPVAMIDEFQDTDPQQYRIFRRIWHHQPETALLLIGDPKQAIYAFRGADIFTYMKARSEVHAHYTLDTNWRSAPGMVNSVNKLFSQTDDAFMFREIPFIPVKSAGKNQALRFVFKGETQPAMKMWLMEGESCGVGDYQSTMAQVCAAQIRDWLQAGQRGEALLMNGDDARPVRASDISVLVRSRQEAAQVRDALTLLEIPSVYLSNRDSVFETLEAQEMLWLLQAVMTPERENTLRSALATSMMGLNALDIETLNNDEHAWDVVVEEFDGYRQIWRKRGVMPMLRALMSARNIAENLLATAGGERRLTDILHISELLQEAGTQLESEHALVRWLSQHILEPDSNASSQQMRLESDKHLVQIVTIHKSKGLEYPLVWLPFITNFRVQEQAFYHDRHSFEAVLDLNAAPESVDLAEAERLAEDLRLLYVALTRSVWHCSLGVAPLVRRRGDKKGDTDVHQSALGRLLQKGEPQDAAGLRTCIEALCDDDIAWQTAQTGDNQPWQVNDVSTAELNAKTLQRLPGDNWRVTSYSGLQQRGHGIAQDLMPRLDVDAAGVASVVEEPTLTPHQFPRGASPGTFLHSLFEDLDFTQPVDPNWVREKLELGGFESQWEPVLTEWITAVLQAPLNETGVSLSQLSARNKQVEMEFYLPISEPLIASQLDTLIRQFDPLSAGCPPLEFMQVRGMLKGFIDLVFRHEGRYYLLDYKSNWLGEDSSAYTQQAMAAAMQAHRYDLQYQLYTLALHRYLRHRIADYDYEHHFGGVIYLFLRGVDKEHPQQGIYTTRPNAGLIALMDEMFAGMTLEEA

[9] = Counterscreen for AddAB inhibitors: absorbance-based bacterial cell-based high throughput dose response assay for inhibitors of bacterial viability. [Related pubchem assays (depositor defined):AID435030, AID449728, AID449731, AID488942, AID488955, AID488956]; format: functional
[10] = NIH-3T3 fibroblast cytotoxicity, dose response, cytotoxicity control, cell-based, fluorescence, Alamar Blue, secondary assay (AID 2327); format: functional;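 note: NIH-3T3 mouse fibroblasts cultured with fluconazole at 8 µg/mL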
[11] = fluconazole-exposed Candida albicans growth modulators – fluorescence, retest, confirmation (AID 2467); format: functional, cell-based
[12] = microbe, parasite or virus in culture; format: functional; conditions: Mycobacterium tuberculosis
Jurkat = experiment: blockers of NF-kB activation in T cells – Jurkat, luciferase reporter, luminescence, B- and T-cell, dose response (AID 489004); format: functional, cell-based; conditions: Homo sapiens;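 note: NF-kB luciferase reporter Jurkat cells stimulated with PMA plus ionomycin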
[13] = HEK-293T viability loss, compound-treated – cell-based, uHTS hits, cytotoxicity control for B/T-cell NF-kB inhibitor project, dose response (AID 489019); format: functional;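 note: IC50 reflects cytotoxicity as loss of cell viability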
Cytochrome P450 2C19 = Cytochrome P450 2C19 (Homo sapiens, UniProt P33261); experiment: Cytochrome panel assay with activity outcomes. Panel member name: p450-cyp2c19 Compounds with AC50 equal or less than 10 uM are considered active; format: functional
Cytochrome P450 2D6 = Cytochrome P450 2D6 (Homo sapiens, UniProt P10635);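 note: CYP2D6 member of a cytochrome P450 panel assay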
Cytochrome P450 3A4 = Cytochrome P450 3A4 (Homo sapiens, UniProt P08684);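 note: CYP3A4 tested as one member of a cytochrome P450 panel screen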
[14] = biological target: Glyceraldehyde-3-phosphate dehydrogenase (Homo sapiens, UniProt P04406)
[15] = biological target: T4, Alkaline phosphatase, tissue-nonspecific isozyme (Homo sapiens, UniProt P05186); experiment: potency against alkaline phosphatase TNAP – biochemical, luminescent, dose response, SAR follow-up (AID 1056)
T4 sequence (P05186 whole entry): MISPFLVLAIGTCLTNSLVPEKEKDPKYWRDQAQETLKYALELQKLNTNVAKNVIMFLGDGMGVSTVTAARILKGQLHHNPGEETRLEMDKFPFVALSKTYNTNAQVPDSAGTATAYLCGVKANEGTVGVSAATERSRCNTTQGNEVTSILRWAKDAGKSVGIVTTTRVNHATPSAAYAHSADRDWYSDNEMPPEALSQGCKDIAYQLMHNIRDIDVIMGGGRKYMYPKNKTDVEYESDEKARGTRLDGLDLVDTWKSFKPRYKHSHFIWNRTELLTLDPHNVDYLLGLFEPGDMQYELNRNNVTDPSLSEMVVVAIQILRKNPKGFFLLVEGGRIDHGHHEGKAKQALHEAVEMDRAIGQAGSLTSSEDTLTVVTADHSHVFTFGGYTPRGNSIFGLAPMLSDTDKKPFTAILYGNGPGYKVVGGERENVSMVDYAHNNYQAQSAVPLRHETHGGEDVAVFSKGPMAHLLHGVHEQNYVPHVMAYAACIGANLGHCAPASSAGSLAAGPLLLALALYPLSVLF

Sequence of DNA dC->dU-editing enzyme APOBEC-3G (Q9HC16 whole entry): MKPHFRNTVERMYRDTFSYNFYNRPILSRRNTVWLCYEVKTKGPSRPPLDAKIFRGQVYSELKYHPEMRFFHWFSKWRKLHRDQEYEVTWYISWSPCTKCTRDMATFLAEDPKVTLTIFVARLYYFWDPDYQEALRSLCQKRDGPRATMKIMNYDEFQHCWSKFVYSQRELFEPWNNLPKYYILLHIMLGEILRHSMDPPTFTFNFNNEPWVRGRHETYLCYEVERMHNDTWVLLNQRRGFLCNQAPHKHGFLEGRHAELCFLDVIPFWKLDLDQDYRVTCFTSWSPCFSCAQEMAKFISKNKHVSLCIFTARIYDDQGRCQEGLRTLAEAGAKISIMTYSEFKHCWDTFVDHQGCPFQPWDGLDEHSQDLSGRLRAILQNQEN
Sequence of Cytochrome P450 2D6 (P10635 whole entry): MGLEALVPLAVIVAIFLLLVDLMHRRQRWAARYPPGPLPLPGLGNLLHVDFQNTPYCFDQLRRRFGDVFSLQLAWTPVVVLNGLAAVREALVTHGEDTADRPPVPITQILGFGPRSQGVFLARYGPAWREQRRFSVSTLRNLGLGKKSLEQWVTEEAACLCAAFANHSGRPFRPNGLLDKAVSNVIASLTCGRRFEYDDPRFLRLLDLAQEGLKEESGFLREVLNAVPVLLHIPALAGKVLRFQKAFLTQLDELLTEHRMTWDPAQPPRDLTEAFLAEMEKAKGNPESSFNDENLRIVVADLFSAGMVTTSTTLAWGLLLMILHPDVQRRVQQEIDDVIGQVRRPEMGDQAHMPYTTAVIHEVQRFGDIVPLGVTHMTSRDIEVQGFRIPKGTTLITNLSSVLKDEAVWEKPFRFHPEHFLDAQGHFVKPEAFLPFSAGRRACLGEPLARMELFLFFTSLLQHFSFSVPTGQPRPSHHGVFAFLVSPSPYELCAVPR
Sequence of Glyceraldehyde-3-phosphate dehydrogenase (P04406 whole entry): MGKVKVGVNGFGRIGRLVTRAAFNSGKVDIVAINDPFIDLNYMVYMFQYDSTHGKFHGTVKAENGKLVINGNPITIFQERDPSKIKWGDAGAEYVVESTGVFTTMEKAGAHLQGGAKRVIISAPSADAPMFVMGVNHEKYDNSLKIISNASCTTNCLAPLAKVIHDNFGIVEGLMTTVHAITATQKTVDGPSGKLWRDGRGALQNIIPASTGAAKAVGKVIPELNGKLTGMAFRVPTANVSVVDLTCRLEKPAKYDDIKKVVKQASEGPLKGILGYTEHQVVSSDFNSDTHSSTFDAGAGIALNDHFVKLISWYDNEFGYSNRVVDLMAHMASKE
Sequence of DNA dC->dU-editing enzyme APOBEC-3A (P31941 whole entry): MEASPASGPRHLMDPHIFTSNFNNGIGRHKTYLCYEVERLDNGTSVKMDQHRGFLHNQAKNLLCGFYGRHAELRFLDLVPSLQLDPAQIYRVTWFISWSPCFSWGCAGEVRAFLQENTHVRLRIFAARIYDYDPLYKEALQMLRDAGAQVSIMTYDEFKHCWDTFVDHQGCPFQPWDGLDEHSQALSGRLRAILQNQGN
Sequence of Cytochrome P450 3A4 (P08684 whole entry): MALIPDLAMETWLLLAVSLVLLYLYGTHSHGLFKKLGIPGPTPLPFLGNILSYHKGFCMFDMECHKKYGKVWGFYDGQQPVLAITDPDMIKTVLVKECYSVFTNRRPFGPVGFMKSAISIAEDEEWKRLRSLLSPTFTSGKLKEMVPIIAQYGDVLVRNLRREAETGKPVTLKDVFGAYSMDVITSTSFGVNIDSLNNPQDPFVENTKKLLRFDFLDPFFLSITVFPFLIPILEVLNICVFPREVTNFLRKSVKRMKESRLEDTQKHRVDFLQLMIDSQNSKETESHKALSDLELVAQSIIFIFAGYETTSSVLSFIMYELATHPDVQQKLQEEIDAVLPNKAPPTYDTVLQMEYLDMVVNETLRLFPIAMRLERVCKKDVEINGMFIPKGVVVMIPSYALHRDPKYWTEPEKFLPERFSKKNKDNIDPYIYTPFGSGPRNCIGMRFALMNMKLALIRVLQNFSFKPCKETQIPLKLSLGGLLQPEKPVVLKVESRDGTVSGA
Sequence of Cytochrome P450 2C19 (P33261 whole entry): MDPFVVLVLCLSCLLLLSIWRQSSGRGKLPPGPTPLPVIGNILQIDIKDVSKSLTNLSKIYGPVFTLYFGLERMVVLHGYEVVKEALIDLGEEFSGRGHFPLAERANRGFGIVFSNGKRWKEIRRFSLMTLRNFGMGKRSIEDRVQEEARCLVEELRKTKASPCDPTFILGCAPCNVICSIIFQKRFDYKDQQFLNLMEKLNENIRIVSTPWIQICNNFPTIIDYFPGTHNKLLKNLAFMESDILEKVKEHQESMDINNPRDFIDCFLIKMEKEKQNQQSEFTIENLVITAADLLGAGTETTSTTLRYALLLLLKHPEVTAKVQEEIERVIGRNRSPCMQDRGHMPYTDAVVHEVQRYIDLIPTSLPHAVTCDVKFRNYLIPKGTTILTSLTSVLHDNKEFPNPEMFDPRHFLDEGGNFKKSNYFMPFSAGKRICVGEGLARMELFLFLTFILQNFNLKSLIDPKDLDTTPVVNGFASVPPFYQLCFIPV

SMILES: Cc1csc(NC(=O)c2ccc(COc3ccccc3)o2)n1
- AC50 [1]: 2.62 µM (active)
- AC50 [2]: 32.2 µM (active)

SMILES: CNC(=O)/C(C#N)=C\c1ccc(CNS(=O)(=O)c2ccc(Cl)cc2)o1
- IC50 [3]: 3.02 µM (active)
- IC50 [4]: 2.81 µM (active)

SMILES: COc1ccc(C(=O)C=Cc2ccc(OCc3ccccc3)c(OC)c2)cc1OC
- CC50 (Vero [5]): 20.9 µM (active)

SMILES: CCN1CCN(C(=O)C2CCN(Cc3nc(-c4cccc(Cl)c4)oc3C)CC2)CC1
- IC50 (Vero [6]): > 25 µM (active)
- CC50 (Vero [5]): > 25 µM (active)

SMILES: CC(=O)Oc1cc2cccc(OC(C)=O)c(=O)c2c(OC(C)=O)c1OC(C)=O
- EC50 [7]: 5.6 µM (active)
- EC50 [8]: 2.01 µM (active)
- IC50 (Exodeoxyribonuclease V): > 119 µM (inactive)
- IC50 [9]: > 119 µM (inactive)

SMILES: O=C(NNC(=O)c1cc(-c2ccncc2)nc2ccccc12)c1ccccc1O
- EC50 [10]: > 160 µM (inactive)
- EC50 [11]: 3.18 µM (active)
- IC50 (Exodeoxyribonuclease V): > 119 µM (inactive)
- IC50 [9]: > 119 µM (inactive)

SMILES: ClCCn1cnc2c(SCc3ccccc3Cl)ncnc21
- IC50 (Vero [6]): < 0.05 µM (active)

SMILES: c1ccc2sc(Sc3ncnc4sccc34)nc2c1
- CC50 [12]: 32.9 µM (active)
- IC50 (Jurkat): 0.41 µM (active)
- IC50 [13]: > 80 µM (inactive)

SMILES: CC(C)C(CO)N1CCN(Cc2ccccc2)CCC1=O (centres undefined)
- IC50 [3]: 8.79 µM (active)
- IC50 [4]: 10.1 µM (active)

SMILES: C[C@@H](O)CC(C)(C)N.Oc1c(Cl)c(Cl)c(Cl)c(Cl)c1Cl
- AC50 (Cytochrome P450 2C19): inactive
- AC50 (Cytochrome P450 2D6): inactive
- AC50 (Cytochrome P450 3A4): inconclusive

SMILES: Cc1ccc(-c2ccc(C(=O)O)[nH]2)cc1
- IC50 [14]: > 100 µM (not active)
- IC50 [15]: > 100 µM (inactive)

SMILES: CC(C)(CN)CN
- AC50 (Cytochrome P450 2D6): inconclusive

SMILES: Cc1nc(-c2cccnc2)c[nH]1
- IC50 [14]: > 100 µM (not active)
- IC50 [15]: > 100 µM (inactive)
